Counter-ions that a name gives are not always drawn. Calls of active or inactive are those of the source.
Tests used:
Format in all cases: functional
Coagulation factor XII = Coagulation factor XII (Homo sapiens, UniProt P00748);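 note: activated factor XIIa alpha cleaving a fluorogenic AMC peptide substrate; inhibitor potency from loss of enzyme activity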
Mucolipin-3 = molecular target: T1, Mucolipin-3 (Homo sapiens, UniProt Q8TDD5); assay: Fluorescence counterscreen assay for […] agonists: dose response cell-based high-throughput screening assay to identify agonists of the transient receptor potential channel ML3 (TRPML3). [Related pubchem assays: 1424, 1448 ]
T1 sequence (Q8TDD5 whole entry): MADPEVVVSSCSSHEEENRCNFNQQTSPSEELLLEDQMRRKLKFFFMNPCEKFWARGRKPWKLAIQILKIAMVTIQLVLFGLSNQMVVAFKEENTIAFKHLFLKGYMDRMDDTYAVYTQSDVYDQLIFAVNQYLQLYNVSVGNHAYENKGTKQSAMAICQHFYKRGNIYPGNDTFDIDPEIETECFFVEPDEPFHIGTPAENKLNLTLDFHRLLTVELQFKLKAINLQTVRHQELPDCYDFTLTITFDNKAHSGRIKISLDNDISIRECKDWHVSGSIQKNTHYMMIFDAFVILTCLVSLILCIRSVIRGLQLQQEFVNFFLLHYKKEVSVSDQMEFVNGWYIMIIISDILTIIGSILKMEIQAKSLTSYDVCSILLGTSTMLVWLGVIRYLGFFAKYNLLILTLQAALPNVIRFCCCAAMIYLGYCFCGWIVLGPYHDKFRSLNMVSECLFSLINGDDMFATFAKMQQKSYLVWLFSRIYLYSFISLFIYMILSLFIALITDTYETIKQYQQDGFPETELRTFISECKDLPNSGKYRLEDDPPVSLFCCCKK

[1] = molecular target: T2, Neuropeptides B/W receptor type 1 (Homo sapiens, UniProt P48145); assay: Fluorescence-based dose response cell-based high throughput screening assay to identify antagonists of the G-protein coupled receptor 7 (GPR7). [Related pubchem assays: 1952 (Screening assay (GPR7 antagonists).), 1880 (Summary AID.)]
T2 sequence (P48145 whole entry): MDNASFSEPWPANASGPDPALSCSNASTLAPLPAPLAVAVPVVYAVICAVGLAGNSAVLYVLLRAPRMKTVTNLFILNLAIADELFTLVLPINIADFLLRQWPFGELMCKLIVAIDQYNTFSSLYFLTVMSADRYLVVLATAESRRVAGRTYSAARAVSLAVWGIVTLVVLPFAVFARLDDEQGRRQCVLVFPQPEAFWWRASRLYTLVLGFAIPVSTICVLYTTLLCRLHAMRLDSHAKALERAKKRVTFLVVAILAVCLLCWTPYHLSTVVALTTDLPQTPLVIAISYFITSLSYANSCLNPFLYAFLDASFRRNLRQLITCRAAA

Ion channel NompC = Ion channel NompC (Danio rerio, UniProt Q7T1G6); assay: Dose response cell-based high-throughput screening assay for agonists of the transient receptor potential channel N1 (TRPN1). [Related pubchem assays (depositor defined):AID1424, AID1448]
[2] = molecular target: Melanin-concentrating hormone receptor 1 (Homo sapiens, UniProt Q99705); assay: Fluorescence-based counterscreen for antagonists of the G-protein coupled receptor 7 (GPR7): cell-based high throughput dose response assay to identify antagonists of the melanin-concentrating hormone receptor 1 (MCHR1).
[3] = molecular target: T3, G-protein coupled receptor 35 (Homo sapiens, UniProt Q9HC97); assay: SAR analysis of Antagonists of the GPR35 Receptor using an Image-Based Assay - Set 6. [Related pubchem assays (depositor defined):AID2013, AID2026]
[4] = molecular target: T3, G-protein coupled receptor 35; assay: SAR analysis of Agonists of the GPR35 Receptor using an Image-Based Assay - Set 4. [Related pubchem assays (depositor defined):AID2013, AID2026]
Cannabinoid receptor 1 [5] = molecular target: T4, Cannabinoid receptor 1 (Homo sapiens, UniProt P21554); assay: SAR analysis of agonists of the Cannabinoid Receptor 1 using an Image-Based Assay - Set 4. [Related pubchem assays (depositor defined):AID2013, AID2026]
Cannabinoid receptor 2 [6] = molecular target: T5, Cannabinoid receptor 2 (Homo sapiens, UniProt P34972); assay: SAR analysis of agonists of the Cannabinoid Receptor 2 using an Image-Based Assay - Set 3. [Related pubchem assays (depositor defined):AID2013, AID2026]
Cannabinoid receptor 1 [7] = molecular target: T4, Cannabinoid receptor 1; assay: SAR analysis of antagonists of the Cannabinoid Receptor 1 using an Image-Based Assay - Set 4. [Related pubchem assays (depositor defined):AID2013, AID2026]
[8] = molecular target: G-protein coupled receptor 55 (Homo sapiens, UniProt Q9Y2T6); assay: SAR Analysis of Selective Antagonists of GPR55 using an Image-Based Assay - Set 4. [Related pubchem assays (depositor defined):AID2013, AID2026];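 note: antagonism of response to 5 µM lysophosphatidylinositol agonist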
Cannabinoid receptor 2 [9] = molecular target: T5, Cannabinoid receptor 2; assay: SAR analysis of antagonists of the Cannabinoid Receptor 2 using an Image-Based Assay - Set 3. [Related pubchem assays (depositor defined):AID2013, AID2026]
BJ = assay: growth inhibition of engineered Ras-driven BJ cells – cell-based, alamar blue fluorescence, cherrypicked samples, dose response (AID 2631); settings: Homo sapiens;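 note: confirmatory dose-response assay in RAS-dependent BJ fibroblasts engineered with TERT, LT and ST, with cytotoxicity read by fluorescence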
[10] = HEK-293T viability loss, compound-treated – cell-based, uHTS hits, cytotoxicity control for B/T-cell NF-kB inhibitor project, dose response (AID 489019);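 note: IC50 reflects cytotoxicity as loss of cell viability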
[11] = microbe, parasite or virus in culture; settings: Mycobacterium tuberculosis

T4 sequence (P21554 whole entry): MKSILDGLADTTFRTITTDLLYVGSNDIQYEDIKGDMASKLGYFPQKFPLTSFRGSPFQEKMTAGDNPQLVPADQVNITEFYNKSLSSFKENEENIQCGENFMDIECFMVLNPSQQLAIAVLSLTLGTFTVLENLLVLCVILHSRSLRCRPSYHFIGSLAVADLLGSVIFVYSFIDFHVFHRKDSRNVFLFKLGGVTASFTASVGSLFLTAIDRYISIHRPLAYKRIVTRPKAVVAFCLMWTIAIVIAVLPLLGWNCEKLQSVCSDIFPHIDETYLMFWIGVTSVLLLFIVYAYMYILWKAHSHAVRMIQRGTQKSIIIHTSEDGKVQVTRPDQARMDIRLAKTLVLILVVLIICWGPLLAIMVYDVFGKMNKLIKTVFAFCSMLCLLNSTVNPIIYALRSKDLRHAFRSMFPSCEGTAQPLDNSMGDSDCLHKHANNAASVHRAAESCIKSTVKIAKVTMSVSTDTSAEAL
T5 sequence (P34972 whole entry): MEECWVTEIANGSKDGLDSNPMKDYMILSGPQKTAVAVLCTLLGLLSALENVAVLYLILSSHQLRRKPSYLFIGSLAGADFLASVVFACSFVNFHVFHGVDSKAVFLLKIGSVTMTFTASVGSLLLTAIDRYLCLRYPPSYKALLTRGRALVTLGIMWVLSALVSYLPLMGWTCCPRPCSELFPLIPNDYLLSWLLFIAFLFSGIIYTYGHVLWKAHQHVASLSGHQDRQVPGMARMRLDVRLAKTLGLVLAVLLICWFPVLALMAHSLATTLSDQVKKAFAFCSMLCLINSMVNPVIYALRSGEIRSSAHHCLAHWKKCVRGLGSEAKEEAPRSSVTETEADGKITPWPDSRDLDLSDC
T3 sequence (Q9HC97 whole entry): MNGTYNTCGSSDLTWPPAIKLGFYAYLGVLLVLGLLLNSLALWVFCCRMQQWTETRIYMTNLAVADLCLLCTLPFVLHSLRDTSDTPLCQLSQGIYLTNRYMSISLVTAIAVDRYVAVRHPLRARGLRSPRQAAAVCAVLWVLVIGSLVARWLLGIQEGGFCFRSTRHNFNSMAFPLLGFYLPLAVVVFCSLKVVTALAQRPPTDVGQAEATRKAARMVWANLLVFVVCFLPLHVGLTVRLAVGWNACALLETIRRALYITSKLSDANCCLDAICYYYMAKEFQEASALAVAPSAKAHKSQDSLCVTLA
G-protein coupled receptor 55, sequence (Q9Y2T6 whole entry): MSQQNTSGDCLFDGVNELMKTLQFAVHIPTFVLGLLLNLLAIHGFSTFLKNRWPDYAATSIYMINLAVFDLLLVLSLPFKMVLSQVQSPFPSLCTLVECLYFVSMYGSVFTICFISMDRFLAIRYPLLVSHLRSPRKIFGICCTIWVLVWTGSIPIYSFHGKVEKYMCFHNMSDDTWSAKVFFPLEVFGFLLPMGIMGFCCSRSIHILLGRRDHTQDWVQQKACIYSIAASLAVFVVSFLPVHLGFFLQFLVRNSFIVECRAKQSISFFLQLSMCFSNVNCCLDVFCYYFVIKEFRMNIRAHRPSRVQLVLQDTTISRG
Melanin-concentrating hormone receptor 1, sequence (Q99705 whole entry): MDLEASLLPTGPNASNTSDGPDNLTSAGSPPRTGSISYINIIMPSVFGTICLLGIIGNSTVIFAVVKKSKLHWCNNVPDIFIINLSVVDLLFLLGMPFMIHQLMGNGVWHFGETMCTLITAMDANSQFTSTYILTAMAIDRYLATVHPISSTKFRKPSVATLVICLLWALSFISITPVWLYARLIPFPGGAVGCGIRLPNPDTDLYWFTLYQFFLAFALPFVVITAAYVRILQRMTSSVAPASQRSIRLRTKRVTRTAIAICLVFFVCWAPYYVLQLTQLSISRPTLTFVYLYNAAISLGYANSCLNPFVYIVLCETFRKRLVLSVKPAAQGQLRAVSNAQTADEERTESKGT
Coagulation factor XII, sequence (P00748 20-372 limits assumed): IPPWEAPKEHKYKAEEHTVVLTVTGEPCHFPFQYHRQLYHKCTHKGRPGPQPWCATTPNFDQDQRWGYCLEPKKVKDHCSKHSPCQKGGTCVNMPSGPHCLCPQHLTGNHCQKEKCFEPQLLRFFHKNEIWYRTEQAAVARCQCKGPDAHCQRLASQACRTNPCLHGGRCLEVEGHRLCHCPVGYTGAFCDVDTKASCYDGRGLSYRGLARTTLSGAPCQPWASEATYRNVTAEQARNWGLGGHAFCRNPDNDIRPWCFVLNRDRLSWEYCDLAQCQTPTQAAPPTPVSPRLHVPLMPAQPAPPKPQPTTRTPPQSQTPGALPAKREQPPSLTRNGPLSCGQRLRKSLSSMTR
Coagulation factor XII, sequence (P00748 373-615 limits assumed): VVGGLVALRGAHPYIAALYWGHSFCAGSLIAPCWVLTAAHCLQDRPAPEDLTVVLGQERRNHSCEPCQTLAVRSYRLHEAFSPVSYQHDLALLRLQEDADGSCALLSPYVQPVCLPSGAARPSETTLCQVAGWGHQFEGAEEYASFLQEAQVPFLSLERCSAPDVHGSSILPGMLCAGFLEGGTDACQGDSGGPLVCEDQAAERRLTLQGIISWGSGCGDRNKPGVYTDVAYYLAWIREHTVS
Ion channel NompC, sequence (Q7T1G6 whole entry): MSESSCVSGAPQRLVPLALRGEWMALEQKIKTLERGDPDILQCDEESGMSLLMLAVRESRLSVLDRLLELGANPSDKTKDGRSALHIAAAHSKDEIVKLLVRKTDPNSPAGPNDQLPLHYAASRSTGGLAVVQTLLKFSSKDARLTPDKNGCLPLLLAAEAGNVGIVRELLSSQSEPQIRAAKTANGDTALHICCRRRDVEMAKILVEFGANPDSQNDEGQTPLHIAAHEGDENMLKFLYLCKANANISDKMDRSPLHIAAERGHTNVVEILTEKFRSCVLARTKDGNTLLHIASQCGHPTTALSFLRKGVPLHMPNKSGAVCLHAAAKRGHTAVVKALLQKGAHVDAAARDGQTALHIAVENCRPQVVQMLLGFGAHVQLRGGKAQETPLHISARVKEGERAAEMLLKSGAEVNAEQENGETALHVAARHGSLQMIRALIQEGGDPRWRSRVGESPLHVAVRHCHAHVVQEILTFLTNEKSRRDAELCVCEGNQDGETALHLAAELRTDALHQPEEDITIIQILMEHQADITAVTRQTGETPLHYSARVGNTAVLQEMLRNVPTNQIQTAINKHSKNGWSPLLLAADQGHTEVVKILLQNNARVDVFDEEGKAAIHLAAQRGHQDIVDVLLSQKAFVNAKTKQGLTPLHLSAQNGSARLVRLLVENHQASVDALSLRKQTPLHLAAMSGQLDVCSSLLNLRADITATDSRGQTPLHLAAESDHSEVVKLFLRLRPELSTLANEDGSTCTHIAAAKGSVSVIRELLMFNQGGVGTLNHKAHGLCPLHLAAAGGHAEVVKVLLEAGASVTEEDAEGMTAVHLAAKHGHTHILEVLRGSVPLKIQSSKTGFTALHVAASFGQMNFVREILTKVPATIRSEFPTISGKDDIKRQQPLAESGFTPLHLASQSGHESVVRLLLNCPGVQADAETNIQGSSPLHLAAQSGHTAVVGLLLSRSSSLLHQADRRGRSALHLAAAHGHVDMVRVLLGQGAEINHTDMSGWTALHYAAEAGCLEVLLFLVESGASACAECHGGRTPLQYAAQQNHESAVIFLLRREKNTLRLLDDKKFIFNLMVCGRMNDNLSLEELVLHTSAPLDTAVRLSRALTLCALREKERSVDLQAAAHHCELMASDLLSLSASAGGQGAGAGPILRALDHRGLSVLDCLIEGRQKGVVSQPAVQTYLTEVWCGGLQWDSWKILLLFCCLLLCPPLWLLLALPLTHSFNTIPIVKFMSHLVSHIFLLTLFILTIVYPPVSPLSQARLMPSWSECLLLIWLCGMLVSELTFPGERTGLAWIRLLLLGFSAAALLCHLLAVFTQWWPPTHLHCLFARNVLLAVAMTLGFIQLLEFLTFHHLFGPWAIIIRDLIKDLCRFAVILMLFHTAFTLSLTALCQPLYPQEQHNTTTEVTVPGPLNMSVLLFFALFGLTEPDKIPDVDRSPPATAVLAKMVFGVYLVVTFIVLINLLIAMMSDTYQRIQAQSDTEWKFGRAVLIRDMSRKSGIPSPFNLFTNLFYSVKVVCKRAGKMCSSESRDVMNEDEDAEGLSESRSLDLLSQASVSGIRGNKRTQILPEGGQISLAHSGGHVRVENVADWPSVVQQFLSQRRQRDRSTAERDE

Which IC50 (Coagulation factor XII) does the source give for `CC(=O)c1sc(NC(=O)COc2ccc(Cl)cc2C)nc1C` here?
Its IC50 is > 50 µM (inactive).

For `O=C(CN1C(=O)C2C3CC(C(Br)C3Br)C2C1=O)N1CCN(Cc2ccccc2)CC1` (configuration not stated), which EC50 (Mucolipin-3) is on record?
The EC50 was > 29.9 µM (not active).

And the IC50 [1]?
Its IC50 is 4.18 µM (active).

What about the EC50 (Ion channel NompC) of the same compound?
Its EC50 is 16.9 µM (inactive).

What about the IC50 [2] of the same compound?
The IC50 was 20.7 µM (not active).

Which IC50 [3] does the source give for `Cc1cccc(OCC(=O)N2CCN(c3nc(C)nc4sc5c(c34)CCCC5)CC2)c1` here?
The IC50 was > 32 µM (inactive).

What about the EC50 [4] of the same compound?
The EC50 was > 32 µM (inactive).

What about the EC50 (Cannabinoid receptor 1 [5]) of the same compound?
Its EC50 is > 32 µM (inactive).

What about the EC50 (Cannabinoid receptor 2 [6]) of the same compound?
The EC50 was > 32 µM (inactive).

What about the IC50 (Cannabinoid receptor 1 [7]) of the same compound?
The IC50 was 1.66 µM (active).

What about the IC50 [8] of the same compound?
Its IC50 is > 32 µM (inactive).

What about the IC50 (Cannabinoid receptor 2 [9]) of the same compound?
Its IC50 is > 11 µM (inactive).

With `COc1ccc(-n2cc3c(-c4ccc(-c5ccccc5)cc4)nnc(C)c3n2)cc1` as the compound, how does the IC50 [3] read?
The IC50 was 4.74 µM (active).

What about the EC50 [4] of the same compound?
Its EC50 is > 32 µM (inactive).

What about the EC50 (Cannabinoid receptor 1 [5]) of the same compound?
The EC50 was > 32 µM (inactive).

What about the EC50 (Cannabinoid receptor 2 [6]) of the same compound?
Its EC50 is > 32 µM (inactive).

And the IC50 (Cannabinoid receptor 1 [7])?
Its IC50 is 1.04 µM (active).

What about the IC50 [8] of the same compound?
Its IC50 is > 32 µM (inactive).

What about the IC50 (Cannabinoid receptor 2 [9]) of the same compound?
Its IC50 is 2.09 µM (active).

Which EC50 (BJ) does the source give for `COc1cccc2c1C(=O)c1c(O)c3c(c(O)c1C2=O)C[C@@](O)(C(=O)CO)C[C@@H]3O[C@H]1C[C@H](N)[C@@H](O)[C@H](C)O1` [EPIRUBICIN HYDROCHLORIDE] here?
The EC50 was < 0.104 µM (active).

And the IC50 [10]?
The IC50 was > 80 µM (inactive).

What about the CC50 [11] of the same compound?
The CC50 was 18.7 µM (active).

Source: ChEMBL document CHEMBL1201862, “PubChem BioAssay data set” (2004)
